Experimental data reported in PMC7758399, “Phosphoglucoisomerase Is an Important Regulatory Enzyme in Partitioning Carbon out of the Calvin-Benson Cycle” (Frontiers in Plant Science, 2020).
Where two headings read alike, the source gives them in different places.

What was measured:
Format in all cases: biochemical
cytosolic AtPGI (PGI2) [1] = target: T1, cytosolic AtPGI (PGI2) (Arabidopsis thaliana, UniProt P34795); experiment: G6PDH-coupled spectrophotometric assay, non-linear least squares fit; details: F6P to G6P direction, F6P 0-0.98 mM, 50 mM bicine pH 7.8, 4.8 mM DTT, 0.6 mM NADP+, read-out: F6P G6P / Cytosolic PGI
T1 construct: gene PGIC; N-terminal His-tag, pET11a, E. coli BL21, Ni-NTA purified
T1 sequence (P34795 1-560): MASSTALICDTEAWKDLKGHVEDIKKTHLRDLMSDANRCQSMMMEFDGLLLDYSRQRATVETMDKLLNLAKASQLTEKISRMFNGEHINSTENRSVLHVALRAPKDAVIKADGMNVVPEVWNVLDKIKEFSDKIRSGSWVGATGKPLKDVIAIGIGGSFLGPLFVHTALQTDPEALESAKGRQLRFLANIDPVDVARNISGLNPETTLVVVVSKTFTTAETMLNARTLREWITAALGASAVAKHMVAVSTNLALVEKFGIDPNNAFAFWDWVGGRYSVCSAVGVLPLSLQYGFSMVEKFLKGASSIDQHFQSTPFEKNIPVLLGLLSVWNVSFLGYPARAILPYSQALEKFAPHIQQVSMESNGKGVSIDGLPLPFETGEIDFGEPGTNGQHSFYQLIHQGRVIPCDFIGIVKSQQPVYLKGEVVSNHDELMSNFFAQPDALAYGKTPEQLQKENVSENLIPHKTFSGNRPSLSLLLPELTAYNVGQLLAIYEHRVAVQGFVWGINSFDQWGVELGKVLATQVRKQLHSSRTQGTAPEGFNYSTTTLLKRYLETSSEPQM
Description: G6PDH-coupled spectrophotometric assay, non-linear least squares fit on cytosolic AtPGI (PGI2)

plastidic AtPGI (PGI1) [2] = target: T2, plastidic AtPGI (PGI1) (Arabidopsis thaliana, UniProt Q8H103); experiment: as above; details: F6P to G6P direction, F6P 0-0.98 mM, 50 mM bicine pH 7.8, 4.8 mM DTT, 0.6 mM NADP+, read-out: F6P G6P / Plastidic PGI
T2 construct: N-terminal His-tag, plastid targeting peptide removed, pET11a, E. coli BL21, Ni-NTA purified
T2 sequence (Q8H103 49-613): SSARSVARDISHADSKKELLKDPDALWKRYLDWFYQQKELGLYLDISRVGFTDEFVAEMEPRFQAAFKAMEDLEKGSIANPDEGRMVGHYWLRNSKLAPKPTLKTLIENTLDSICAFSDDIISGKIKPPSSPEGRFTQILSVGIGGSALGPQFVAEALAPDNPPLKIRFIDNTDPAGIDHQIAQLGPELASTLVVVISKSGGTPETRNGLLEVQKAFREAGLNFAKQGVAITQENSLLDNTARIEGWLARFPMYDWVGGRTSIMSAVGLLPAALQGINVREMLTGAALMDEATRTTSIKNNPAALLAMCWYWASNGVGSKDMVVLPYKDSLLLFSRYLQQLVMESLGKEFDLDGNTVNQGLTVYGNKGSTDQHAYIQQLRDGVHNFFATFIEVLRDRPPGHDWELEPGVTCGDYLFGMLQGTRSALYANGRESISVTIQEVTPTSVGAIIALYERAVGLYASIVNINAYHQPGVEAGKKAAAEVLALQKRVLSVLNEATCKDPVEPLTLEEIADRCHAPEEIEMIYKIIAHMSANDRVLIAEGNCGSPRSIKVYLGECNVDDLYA
Description: G6PDH-coupled spectrophotometric assay, non-linear least squares fit on plastidic AtPGI (PGI1)

plastidic SoPGI = target: T3, plastidic SoPGI (Spinacia oleracea, UniProt O82058); experiment: PGI assay on lysed isolated chloroplasts; details: F6P to G6P direction; light-treated leaves (dark-treated also measured)
T3 construct: gene GPIP; native, lysed Percoll-isolated chloroplasts from market spinach leaves, light or dark treated
T3 sequence (O82058 51-618): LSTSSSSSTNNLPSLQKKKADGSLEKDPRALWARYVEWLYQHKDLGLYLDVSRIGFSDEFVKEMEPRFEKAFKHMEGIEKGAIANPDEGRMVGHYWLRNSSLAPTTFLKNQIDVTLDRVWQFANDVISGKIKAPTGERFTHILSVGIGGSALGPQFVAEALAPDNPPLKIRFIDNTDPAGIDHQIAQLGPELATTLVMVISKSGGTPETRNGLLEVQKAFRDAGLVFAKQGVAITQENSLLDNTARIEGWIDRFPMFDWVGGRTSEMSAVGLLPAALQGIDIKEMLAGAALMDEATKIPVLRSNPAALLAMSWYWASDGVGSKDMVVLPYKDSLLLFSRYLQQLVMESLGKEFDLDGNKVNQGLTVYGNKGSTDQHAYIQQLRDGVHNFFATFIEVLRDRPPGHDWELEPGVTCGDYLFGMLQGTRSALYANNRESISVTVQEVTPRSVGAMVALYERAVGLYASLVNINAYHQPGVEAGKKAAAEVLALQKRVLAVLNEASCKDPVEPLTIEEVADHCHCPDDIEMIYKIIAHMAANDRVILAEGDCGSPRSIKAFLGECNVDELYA

cytosolic AtPGI (PGI2) [3] = target: T1, cytosolic AtPGI (PGI2); experiment: G6PDH-coupled spectrophotometric assay, Hill function fit; details: F6P to G6P direction; 50 mM bicine pH 7.8, 4.8 mM DTT, 0.6 mM NADP+; table and text disagree, table columns possibly interchanged; read-out: F6P G6P / Cytosolic PGI
Description: G6PDH-coupled spectrophotometric assay, Hill function fit on cytosolic AtPGI (PGI2)

plastidic AtPGI (PGI1) [4] = target: T2, plastidic AtPGI (PGI1); experiment: as above; details: F6P to G6P direction; 50 mM bicine pH 7.8, 4.8 mM DTT, 0.6 mM NADP+; read-out: F6P G6P / Plastidic PGI
Description: G6PDH-coupled spectrophotometric assay, Hill function fit on plastidic AtPGI (PGI1)

plastidic AtPGI (PGI1) [5] = target: T2, plastidic AtPGI (PGI1); experiment: phosphofructokinase-coupled LC-MS/MS assay of FBP, Hill function fit; details: G6P to F6P direction; 50 mM Tris pH 7.8, 2.5 mM MgCl2, 1 mM ATP, 5 mM DTT; table and text ratio disagree, table columns possibly interchanged; read-out: G6P F6P / Plastidic PGI
Description: phosphofructokinase-coupled LC-MS/MS assay of FBP, Hill function fit on plastidic AtPGI (PGI1)

cytosolic AtPGI (PGI2) [6] = target: T1, cytosolic AtPGI (PGI2); experiment: as above; details: G6P to F6P direction; 50 mM Tris pH 7.8, 2.5 mM MgCl2, 1 mM ATP, 5 mM DTT; read-out: G6P F6P / Cytosolic PGI
Description: phosphofructokinase-coupled LC-MS/MS assay of FBP, Hill function fit on cytosolic AtPGI (PGI2)

[7] = competitive with F6P except above 1.0 mM

`O=C(O)[C@H](O)[C@@H](O)[C@H](O)[C@H](O)COP(=O)(O)O` [6PG, 6-phosphogluconate] gave a Ki (cytosolic AtPGI (PGI2) [1]; [7]) of 106 µM and a Ki (plastidic AtPGI (PGI1) [2]; [7]) of 31 µM.

For `O=C[C@H](O)[C@H](O)COP(=O)(O)O` [E4P, erythrose 4-phosphate], the Ki (cytosolic AtPGI (PGI2) [1]) was 1.5 µM and the Ki (plastidic AtPGI (PGI1) [2]) was 2.3 µM.

With `O=P(O)(O)OC[C@H]1OC(O)(CO)[C@@H](O)[C@@H]1O` (stereo partly drawn) [F6P, fructose 6-phosphate] the Km (plastidic SoPGI) was “The Km of SoPGI for F6P did not change in the light or dark”, the Km (cytosolic AtPGI (PGI2) [3]) was 203 ± 12 µM and the Km (plastidic AtPGI (PGI1) [4]) was 73 ± 80 µM.

Molecule `O=P(O)(O)OC[C@H]1OC(O)[C@H](O)[C@@H](O)[C@@H]1O` (stereo partly drawn) [G6P, glucose 6-phosphate] has a Km (plastidic AtPGI (PGI1) [5]) of 164 ± 43 µM and a Km (cytosolic AtPGI (PGI2) [6]) of 158 ± 85 µM.
